The target of this assay is human TRPA1 channel (Homo sapiens (Human), UniProt O75762). Description: hTRPA1 CHO Ca2+ FLIPR Tetra assay, block of cinnamaldehyde induced calcium influx. The assay is classed as cell-based. Conditions: for IC50: CHO cells expressing TRPA1, Hill coefficient fixed to 1.5; for TRPA1 IC50 compared with 3-azabicyclo[3.1.0]hexene linker and cyclobutylene linker analogues: bicyclo[3.1.0]hexene linker compounds versus same-substituent analogues (compounds 16, 191; 26, 1). Summed up:
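Calcium-dye-loaded TRPA1-expressing CHO cells in HBSS/20 mM HEPES pH 7.4, 0.02% BSA were preincubated with compound for 10 or 90 min at room temperature. Calcium influx evoked by roughly an EC50 concentration of cinnamaldehyde was then read on FLIPR Tetra; IC50 came from curve fits with a fixed Hill coefficient.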

Where [1] appears, read: read-out: hTRPA1 IC50 (10 min), compounds incubated 10 minutes at room temperature before cinnamaldehyde agonist.
The mark [2] stands for this setting: read-out: hTRPA1 IC50 (90 min), compounds incubated 90 minutes at room temperature before cinnamaldehyde agonist.

Each structure is given as a SMILES string. Read-outs that look alike come from different tables or passages of the source.

In general, IC50 refers to the point on the concentration scale where inhibition reaches its midpoint.

Chain of human TRPA1 channel (O75762 whole entry): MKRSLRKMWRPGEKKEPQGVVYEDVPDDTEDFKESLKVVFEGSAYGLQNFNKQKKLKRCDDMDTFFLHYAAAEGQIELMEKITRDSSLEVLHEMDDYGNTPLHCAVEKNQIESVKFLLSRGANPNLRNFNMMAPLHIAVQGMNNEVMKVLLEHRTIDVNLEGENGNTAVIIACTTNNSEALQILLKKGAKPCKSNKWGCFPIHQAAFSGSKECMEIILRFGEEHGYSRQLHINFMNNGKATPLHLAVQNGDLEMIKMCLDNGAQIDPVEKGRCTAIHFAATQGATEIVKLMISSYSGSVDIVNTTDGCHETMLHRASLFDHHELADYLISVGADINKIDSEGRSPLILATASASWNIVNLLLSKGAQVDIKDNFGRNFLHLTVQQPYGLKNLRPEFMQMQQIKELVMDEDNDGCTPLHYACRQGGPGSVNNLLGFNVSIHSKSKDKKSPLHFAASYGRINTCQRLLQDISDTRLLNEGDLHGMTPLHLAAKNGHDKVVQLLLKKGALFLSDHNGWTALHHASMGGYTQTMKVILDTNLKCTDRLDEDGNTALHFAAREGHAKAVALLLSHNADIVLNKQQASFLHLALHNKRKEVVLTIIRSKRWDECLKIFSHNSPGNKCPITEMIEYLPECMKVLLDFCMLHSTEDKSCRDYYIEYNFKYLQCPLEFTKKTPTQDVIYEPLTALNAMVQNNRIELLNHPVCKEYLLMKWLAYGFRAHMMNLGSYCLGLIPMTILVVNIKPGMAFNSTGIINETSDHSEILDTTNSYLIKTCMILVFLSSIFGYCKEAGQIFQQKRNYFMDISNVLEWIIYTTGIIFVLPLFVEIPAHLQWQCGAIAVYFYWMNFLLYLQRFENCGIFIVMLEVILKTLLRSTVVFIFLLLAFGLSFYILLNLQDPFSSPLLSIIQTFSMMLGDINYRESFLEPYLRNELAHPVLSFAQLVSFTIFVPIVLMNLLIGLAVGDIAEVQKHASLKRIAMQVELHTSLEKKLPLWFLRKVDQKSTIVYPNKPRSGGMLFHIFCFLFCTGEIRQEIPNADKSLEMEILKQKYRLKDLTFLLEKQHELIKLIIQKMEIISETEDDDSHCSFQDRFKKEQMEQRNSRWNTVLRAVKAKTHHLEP

As for `Cn1cnc2ncn(Cc3nc([C@H]4C[C@H](Oc5ccc(Cl)cc5)C4)no3)c(=O)c21` [Example Compound 218, 1-((3-((1r,3r)-3-(4-chlorophenoxy)cyclobutyl)-1,2,4-oxadiazol-5-yl)methyl)-7-methyl-1,7-dihydro-6H-purin-6-one], the IC50 under setting [1] was 24.9 nM and the IC50 under setting [2] was 13 nM.

Take `Cn1cnc2ncn(Cc3nc([C@H]4[C@@H]5CN(c6cc(Cl)c(F)cc6F)C[C@@H]54)no3)c(=O)c21` [Example Compound 219, 1-((3-((1R,5S,6r)-3-(5-chloro-2,4-difluorophenyl)-3-azabicyclo[3.1.0]hexan-6-yl)-1,2,4-oxadiazol-5-yl)methyl)-7-methyl-1,7-dihydro-6H-purin-6-one]: the half-maximal inhibitory concentration (IC50) is, setting by setting: under setting [1], 29.3 nM; under setting [2], 31 nM.

As to `Cn1cnc2ncn(Cc3nc([C@H]4C[C@H](c5ccc(F)c(Cl)c5)C4)no3)c(=O)c21` [Example Compound 220, 1-((3-((1r,3r)-3-(3-chloro-4-fluorophenyl)cyclobutyl)-1,2,4-oxadiazol-5-yl)methyl)-7-methyl-1,7-dihydro-6H-purin-6-one], the IC50 under setting [1] was 54.6 nM.

As for `Cn1cnc2ncn(Cc3nc([C@H]4[C@@H]5CN(c6ccc7scnc7c6)C[C@@H]54)no3)c(=O)c21` [Example Compound 221, 1-((3-((1R,5S,6r)-3-(benzo[d]thiazol-5-yl)-3-azabicyclo[3.1.0]hexan-6-yl)-1,2,4-oxadiazol-5-yl)methyl)-7-methyl-1,7-dihydro-6H-purin-6-one], the half-maximal inhibitory concentration (IC50) under setting [1] amounted to 94 nM and the IC50 under setting [2] is 41 nM.

Regarding `Cn1cnc2ncn(Cc3nc([C@H]4[C@@H]5CN(c6c(F)ccc(Cl)c6F)C[C@@H]54)no3)c(=O)c21` [Example Compound 222, 1-((3-((1R,5S,6r)-3-(3-chloro-2,6-difluorophenyl)-3-azabicyclo[3.1.0]hexan-6-yl)-1,2,4-oxadiazol-5-yl)methyl)-7-methyl-1,7-dihydro-6H-purin-6-one], the IC50 under setting [1] is 29.7 nM and the IC50 under setting [2] worked out at 6.7 nM.

Turning to `Cn1cnc2ncn(Cc3nc([C@H]4CC[C@H](c5ccc(Cl)cc5)C4)no3)c(=O)c21` [Example Compound 223, 1-((3-((1S,3S)-3-(4-chlorophenyl)cyclopentyl)-1,2,4-oxadiazol-5-yl)methyl)-7-methyl-1,7-dihydro-6H-purin-6-one], the concentration for half-maximal inhibition (IC50) under setting [1] stood at 22.2 nM.

As to `Cc1cccc(N2C[C@@H]3[C@H](C2)[C@H]3c2noc(Cn3cnc4ncn(C)c4c3=O)n2)c1` [Example Compound 224, 7-methyl-1-((3-((1R,5S,6r)-3-(m-tolyl)-3-azabicyclo[3.1.0]hexan-6-yl)-1,2,4-oxadiazol-5-yl)methyl)-1,7-dihydro-6H-purin-6-one], the IC50 is, setting by setting: under setting [1], 71.6 nM; under setting [2], 19 nM.

As to `Cn1cnc2ncn(Cc3nc([C@H]4[C@@H]5C=C(c6ccccc6)C[C@@H]54)no3)c(=O)c21` [Example Compound 225, 7-methyl-1-((3-((1S,5S,6R)-3-phenylbicyclo[3.1.0]hex-2-en-6-yl)-1,2,4-oxadiazol-5-yl)methyl)-1,7-dihydro-6H-purin-6-one], the “TRPA1 IC50 compared with 3-azabicyclo[3.1.0]hexene linker and cyclobutylene linker analogues” value is “improved TRPA1 IC50 values”. Also, the IC50 under setting [1] turned out to be 13.8 nM. Moreover, the half-maximal inhibitory concentration (IC50) under setting [2] came out at 1.7 nM.

In the case of `Cn1cnc2ncn(Cc3nc([C@@H]4[C@H]5C=C(c6ccccc6)C[C@H]54)no3)c(=O)c21` [Example Compound 226, 7-methyl-1-((3-((1R,5R,6S)-3-phenylbicyclo[3.1.0]hex-2-en-6-yl)-1,2,4-oxadiazol-5-yl)methyl)-1,7-dihydro-6H-purin-6-one], the “TRPA1 IC50 compared with 3-azabicyclo[3.1.0]hexene linker and cyclobutylene linker analogues” value was “improved TRPA1 IC50 values”. Besides, the IC50 under setting [1] was 21.6 nM. Under setting [2], the half-inhibitory concentration (IC50) turned out to be 9.9 nM.

On to `Cc1ccnc2ncn(Cc3nc([C@@H]4[C@H]5C=C(c6ccccc6)C[C@H]54)no3)c(=O)c12` [Example Compound 227, 5-methyl-3-((3-((1R,5R,6S)-3-phenylbicyclo[3.1.0]hex-2-en-6-yl)-1,2,4-oxadiazol-5-yl)methyl)pyrido[2,3-d]pyrimidin-4(3H)-one], for which, under setting [1], the IC50 came to 14 nM.

For the compound `Cn1cnc2ncn(Cc3nc([C@H]4[C@@H]5CN(c6ccccn6)C[C@@H]54)no3)c(=O)c21` [Example Compound 228, 7-methyl-1-((3-((1R,5S,6r)-3-(pyridin-2-yl)-3-azabicyclo[3.1.0]hexan-6-yl)-1,2,4-oxadiazol-5-yl)methyl)-1,7-dihydro-6H-purin-6-one], the IC50 under setting [1] is 223 nM and the concentration for half-maximal inhibition (IC50) under setting [2] is 130 nM.

As for `Cn1cnc2ncn(Cc3nc([C@H]4[C@@H]5CN(c6ccc(Cl)c(F)c6)C[C@@H]54)no3)c(=O)c21` [Example Compound 229, 1-((3-((1R,5S,6r)-3-(4-chloro-3-fluorophenyl)-3-azabicyclo[3.1.0]hexan-6-yl)-1,2,4-oxadiazol-5-yl)methyl)-7-methyl-1,7-dihydro-6H-purin-6-one], the IC50 by setting is: under setting [1], 21.7 nM; under setting [2], 10 nM.

In the case of `O=c1c2ccncc2ncn1Cc1nc([C@H]2[C@@H]3CN(c4cccc(Cl)c4)C[C@@H]32)no1` [Example Compound 230, 3-((3-((1R,5S,6r)-3-(3-chlorophenyl)-3-azabicyclo[3.1.0]hexan-6-yl)-1,2,4-oxadiazol-5-yl)methyl)pyrido[3,4-d]pyrimidin-4(3H)-one], the IC50 under setting [1] worked out at 33.1 nM.

On to `Cn1cnc2ncn(Cc3nc([C@H]4C[C@H](c5ccc6ccccc6c5)C4)no3)c(=O)c21` [Example Compound 231, 7-methyl-1-((3-((1r,3r)-3-(naphthalen-2-yl)cyclobutyl)-1,2,4-oxadiazol-5-yl)methyl)-1,7-dihydro-6H-purin-6-one], for which the IC50 under setting [1] stood at 57.3 nM.

With `Cc1cncc2ncn(Cc3nc([C@H]4C[C@](O)(c5ccc6ccccc6c5)C4)no3)c(=O)c12` [Example Compound 232, 3-((3-((1s,3s)-3-hydroxy-3-(naphthalen-2-yl)cyclobutyl)-1,2,4-oxadiazol-5-yl)methyl)-5-methylpyrido[3,4-d]pyrimidin-4(3H)-one], the concentration for half-maximal inhibition (IC50) under setting [2] is 4.8 nM.

As to `Cc1ccnc2ncn(Cc3nc([C@H]4C[C@](O)(c5ccc6ccccc6c5)C4)no3)c(=O)c12` [Example Compound 233, 3-((3-((1s,3s)-3-hydroxy-3-(naphthalen-2-yl)cyclobutyl)-1,2,4-oxadiazol-5-yl)methyl)-5-methylpyrido[2,3-d]pyrimidin-4(3H)-one], under setting [1], the IC50 stood at 38.6 nM.

With `Cn1cnc2ncn(Cc3nc([C@H]4[C@@H]5CN(c6cccc(-c7ccccc7)c6)C[C@@H]54)no3)c(=O)c21` [Example Compound 234, 1-((3-((1R,5S,6r)-3-([1,1′-biphenyl]-3-yl)-3-azabicyclo[3.1.0]hexan-6-yl)-1,2,4-oxadiazol-5-yl)methyl)-7-methyl-1,7-dihydro-6H-purin-6-one], the IC50 under setting [1] was 340 nM.

In the case of `Cn1cnc2ncn(Cc3nc([C@H]4[C@@H]5CN(c6cccc(C#N)c6)C[C@@H]54)no3)c(=O)c21` [Example Compound 235, 3-((1R,5S,6r)-6-(5-((7-methyl-6-oxo-6,7-dihydro-1H-purin-1-yl)methyl)-1,2,4-oxadiazol-3-yl)-3-azabicyclo[3.1.0]hexan-3-yl)benzonitrile], the concentration for half-maximal inhibition (IC50) runs as follows: under setting [1], 73.5 nM; under setting [2], 17 nM.

For the compound `Cn1cnc2ncn(Cc3nc([C@H]4[C@@H]5CN(c6cccc(Cl)c6F)C[C@@H]54)no3)c(=O)c21` [Example Compound 236, 1-((3-((1R,5S,6r)-3-(3-chloro-2-fluorophenyl)-3-azabicyclo[3.1.0]hexan-6-yl)-1,2,4-oxadiazol-5-yl)methyl)-7-methyl-1,7-dihydro-6H-purin-6-one], the IC50 under setting [1] turned out to be 21.3 nM and the concentration for half-maximal inhibition (IC50) under setting [2] came out at 4.4 nM.

As to `Cn1cnc2ncn(Cc3nc([C@H]4[C@@H]5CN(c6ccc7sncc7c6)C[C@@H]54)no3)c(=O)c21` [Example Compound 237, 1-((3-((1R,5S,6r)-3-(benzo[d]isothiazol-5-yl)-3-azabicyclo[3.1.0]hexan-6-yl)-1,2,4-oxadiazol-5-yl)methyl)-7-methyl-1,7-dihydro-6H-purin-6-one], the concentration for half-maximal inhibition (IC50) was found to be 18.2 nM under setting [1] and 2.1 nM under setting [2].

`Cc1cc(N)nc2ncn(Cc3nc([C@H]4[C@@H]5C=C(c6ccccc6)C[C@@H]54)no3)c(=O)c12` [Example Compound 238, 7-amino-5-methyl-3-[[3-[(1S,5S,6R)-3-phenyl-6-bicyclo[3.1.0]hex-2-enyl]-1,2,4-oxadiazol-5-yl]methyl]pyrido[2,3-d]pyrimidin-4-one]: the IC50 turned out to be 11.3 nM under setting [1] and 1.5 nM under setting [2].

For `Nc1ccc2c(=O)n(Cc3nc([C@H]4[C@@H]5C=C(c6ccccc6)C[C@@H]54)no3)cnc2n1` [Example Compound 239, 7-amino-3-[[3-[(1S,5S,6R)-3-phenyl-6-bicyclo[3.1.0]hex-2-enyl]-1,2,4-oxadiazol-5-yl]methyl]pyrido[2,3-d]pyrimidin-4-one], the IC50 is, setting by setting: under setting [1], 10.5 nM; under setting [2], 5.3 nM.

As to `Cn1cnc2ncn(Cc3nc([C@@H]4[C@H]5CC[C@H](Oc6ccccc6)[C@H]54)no3)c(=O)c21` [Example Compound 240, 7-methyl-1-[[3-[(1R,2S,5R,6R)-2-phenoxy-6-bicyclo[3.1.0]hexanyl]-1,2,4-oxadiazol-5-yl]methyl]purin-6-one], the IC50 under setting [1] worked out at 254 nM and the IC50 under setting [2] came out at 80 nM.

`CC(=O)Nc1nc2ncn(Cc3nc([C@H]4[C@@H]5C=C(c6ccccc6)C[C@@H]54)no3)c(=O)c2n1C` [Example Compound 241, N-[7-methyl-6-oxo-1-[[3-[(1S,5S,6R)-3-phenyl-6-bicyclo[3.1.0]hex-2-enyl]-1,2,4-oxadiazol-5-yl]methyl]purin-8-yl]acetamide]: the IC50 is, setting by setting: under setting [1], 66.9 nM; under setting [2], 18 nM.

Values taken from US10711004B2 (Genentech, Inc., priority 2018, dated 2020).
